{"source": "ChEMBL document CHEMBL4043190", "about": "(Bioorg Med Chem Lett, 2017)", "key": {"[1]": {"experiment": "Ratio of unbound drug concentration in IL-23/IL-1beta induced C57BL/6J mouse plasma at 70 mg/kg, po to EC50 for JAK2 (unknown origin) assessed as inhibition of EPO-mediated STAT5 phosphorylation", "format": "organism-based", "conditions": "in vivo"}, "[2]": {"tested_on": "Mus musculus", "experiment": "Toxicity in IMQ-induced BALB/c mouse model assessed as reduction in platelet levels at 30 mg/kg, po bid for 5 days", "format": "organism-based", "set-up": "scale not given: the % may be the effect or the level left", "conditions": "in vivo, 120 h"}, "[3]": {"biological_target": "T1, Non-receptor tyrosine-protein kinase TYK2 (Homo sapiens, UniProt P29597)", "T1 sequence (P29597 whole entry)": "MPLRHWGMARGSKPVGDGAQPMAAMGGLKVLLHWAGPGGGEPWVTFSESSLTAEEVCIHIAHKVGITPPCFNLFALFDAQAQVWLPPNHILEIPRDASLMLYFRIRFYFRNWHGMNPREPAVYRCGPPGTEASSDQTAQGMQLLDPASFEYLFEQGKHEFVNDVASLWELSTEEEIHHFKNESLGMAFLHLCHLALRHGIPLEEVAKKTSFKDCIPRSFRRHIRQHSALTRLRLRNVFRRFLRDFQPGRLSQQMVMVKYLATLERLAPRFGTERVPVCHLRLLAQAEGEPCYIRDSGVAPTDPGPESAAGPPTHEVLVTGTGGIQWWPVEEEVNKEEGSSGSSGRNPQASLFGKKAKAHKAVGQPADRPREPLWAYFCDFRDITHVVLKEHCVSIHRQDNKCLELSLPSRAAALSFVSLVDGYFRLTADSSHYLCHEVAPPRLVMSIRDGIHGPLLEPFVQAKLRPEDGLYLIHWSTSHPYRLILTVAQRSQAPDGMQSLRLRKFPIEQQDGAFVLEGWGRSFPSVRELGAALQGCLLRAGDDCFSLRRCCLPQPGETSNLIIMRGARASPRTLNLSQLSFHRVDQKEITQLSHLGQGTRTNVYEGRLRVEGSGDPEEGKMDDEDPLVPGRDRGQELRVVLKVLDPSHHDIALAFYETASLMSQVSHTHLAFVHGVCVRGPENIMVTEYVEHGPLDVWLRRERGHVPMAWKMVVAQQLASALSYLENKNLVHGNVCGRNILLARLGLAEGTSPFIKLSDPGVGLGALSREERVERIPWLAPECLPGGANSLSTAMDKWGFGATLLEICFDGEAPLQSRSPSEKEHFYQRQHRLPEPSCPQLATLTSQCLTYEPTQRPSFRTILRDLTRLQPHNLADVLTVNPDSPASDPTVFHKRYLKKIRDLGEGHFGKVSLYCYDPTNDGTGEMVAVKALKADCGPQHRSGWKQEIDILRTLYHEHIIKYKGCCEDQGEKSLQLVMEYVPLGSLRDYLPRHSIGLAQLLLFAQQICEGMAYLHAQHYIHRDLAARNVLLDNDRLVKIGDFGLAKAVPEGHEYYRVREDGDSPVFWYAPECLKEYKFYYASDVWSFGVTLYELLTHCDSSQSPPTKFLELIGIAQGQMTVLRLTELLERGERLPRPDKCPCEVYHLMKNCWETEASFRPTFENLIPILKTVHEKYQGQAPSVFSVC", "experiment": "Inhibition of TYK2 (unknown origin) assessed as reduction in IL-23 induced STAT3 phosphorylation by cell based ELISA"}, "[4]": {"tested_on": "Mus musculus", "experiment": "Antiinflammatory activity in IMQ-induced BALB/c mouse model assessed as reduction in serum IL-17F production administered po bid for 5 days", "format": "functional, organism-based"}, "[5]": {"species": "Homo sapiens", "experiment": "Selectivity ratio of Ki for JAK2 (unknown origin) to Ki for TYK2 (unknown origin)"}, "[6]": {"tested_on": "Mus musculus", "experiment": "Anti-inflammatory activity in IL-23/IL-1beta induced C57BL/6J mouse assessed as inhibition of IL-17F level in serum at 30 mg/kg, po pretreated for 30 mins followed by cytokine addition measured after 3 hrs by ELISA relative to control", "format": "functional"}, "[7]": {"tested_on": "Mus musculus", "experiment": "Toxicity in IMQ-induced BALB/c mouse model assessed as reduction in platelet levels at 100 mg/kg, po bid for 5 days", "format": "organism-based", "set-up": "scale not given: the % may be the effect or the level left", "conditions": "in vivo, 120 h"}, "[8]": {"experiment": "Clearance in rat", "format": "ADME", "conditions": "in vivo"}, "[9]": {"biological_target": "T2, Cyclin-dependent kinase 2 (Homo sapiens, UniProt P24941)", "conditions": "70 nM"}, "[10]": {"experiment": "Protein binding in mouse plasma", "format": "ADME, cell-free", "conditions": "read-out: PPB (converted)"}, "[11]": {"tested_on": "Mus musculus", "experiment": "Anti-inflammatory activity in IL-23/IL-1beta induced C57BL/6J mouse assessed as inhibition of IL-17F level in serum at 100 mg/kg, po pretreated for 30 mins followed by cytokine addition measured after 3 hrs by ELISA relative to control", "format": "functional"}, "[12]": {"tested_on": "Mus musculus", "experiment": "Toxicity in IMQ-induced BALB/c mouse model assessed as reduction in platelet levels at 70 mg/kg, po bid for 5 days", "format": "organism-based", "set-up": "scale not given: the % may be the effect or the level left", "conditions": "in vivo, 120 h"}, "[13]": {"experiment": "Ratio of unbound drug concentration in IL-23/IL-1beta induced C57BL/6J mouse plasma at 30 mg/kg, po to EC50 for TYK2 (unknown origin) assessed as inhibition of IL-23 induced STAT3 phosphorylation"}, "[14]": {"experiment": "Efflux ratio of permeability from basolateral to apical over apical to basolateral side in MDCK cells", "format": "ADME, cell-based, Canis lupus familiaris", "conditions": "dog"}, "[15]": {"biological_target": "Cyclin-dependent kinase 9 (Homo sapiens, UniProt P50750)", "sequence (P50750 whole entry)": "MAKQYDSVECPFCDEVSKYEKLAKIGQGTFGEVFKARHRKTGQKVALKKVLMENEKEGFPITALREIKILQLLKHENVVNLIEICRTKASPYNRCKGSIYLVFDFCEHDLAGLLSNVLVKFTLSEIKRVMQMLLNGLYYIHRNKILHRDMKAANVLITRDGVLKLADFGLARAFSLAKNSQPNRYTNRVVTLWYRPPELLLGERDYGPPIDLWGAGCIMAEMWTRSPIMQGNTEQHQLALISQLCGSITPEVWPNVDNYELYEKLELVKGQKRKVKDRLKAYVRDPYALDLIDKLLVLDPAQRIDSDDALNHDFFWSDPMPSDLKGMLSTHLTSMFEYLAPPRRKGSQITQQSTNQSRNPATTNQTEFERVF", "experiment": "Inhibition of CDK9 (unknown origin)"}, "[16]": {"biological_target": "T3, Tyrosine-protein kinase JAK2 (Homo sapiens, UniProt O60674)", "T3 sequence (O60674 whole entry)": "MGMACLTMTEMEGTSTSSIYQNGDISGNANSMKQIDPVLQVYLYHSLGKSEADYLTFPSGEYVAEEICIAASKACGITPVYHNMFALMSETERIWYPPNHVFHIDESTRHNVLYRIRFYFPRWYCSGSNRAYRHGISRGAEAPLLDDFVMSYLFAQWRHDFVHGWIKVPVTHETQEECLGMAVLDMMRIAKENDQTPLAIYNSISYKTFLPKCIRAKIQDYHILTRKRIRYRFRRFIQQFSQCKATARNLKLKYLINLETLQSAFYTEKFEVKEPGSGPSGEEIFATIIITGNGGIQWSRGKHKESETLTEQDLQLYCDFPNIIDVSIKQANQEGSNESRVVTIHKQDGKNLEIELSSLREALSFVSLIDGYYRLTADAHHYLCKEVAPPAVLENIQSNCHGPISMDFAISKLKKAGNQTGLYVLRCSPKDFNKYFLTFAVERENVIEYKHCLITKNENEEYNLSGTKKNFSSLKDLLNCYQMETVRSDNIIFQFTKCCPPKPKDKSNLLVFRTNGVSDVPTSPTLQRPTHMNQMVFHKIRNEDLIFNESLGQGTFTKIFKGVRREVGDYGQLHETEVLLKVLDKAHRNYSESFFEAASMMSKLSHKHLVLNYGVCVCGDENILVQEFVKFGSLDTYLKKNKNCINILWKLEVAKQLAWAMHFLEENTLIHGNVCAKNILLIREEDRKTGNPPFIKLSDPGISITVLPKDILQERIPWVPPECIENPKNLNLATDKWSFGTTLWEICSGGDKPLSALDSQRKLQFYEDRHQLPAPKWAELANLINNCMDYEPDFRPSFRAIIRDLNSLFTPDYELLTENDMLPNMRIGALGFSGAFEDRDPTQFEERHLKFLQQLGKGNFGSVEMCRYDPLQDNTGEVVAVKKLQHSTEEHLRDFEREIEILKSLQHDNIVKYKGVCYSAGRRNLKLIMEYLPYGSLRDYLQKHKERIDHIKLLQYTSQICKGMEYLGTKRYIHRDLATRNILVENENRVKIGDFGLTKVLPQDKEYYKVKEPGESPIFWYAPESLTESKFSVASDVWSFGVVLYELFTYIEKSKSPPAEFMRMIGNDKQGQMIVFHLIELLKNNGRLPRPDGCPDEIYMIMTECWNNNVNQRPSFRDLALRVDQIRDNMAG", "experiment": "Inhibition of JAK2 (unknown origin) by biochemical assay"}, "[17]": {"experiment": "Protein binding in human plasma", "format": "ADME, cell-free", "conditions": "read-out: PPB (converted)"}, "[18]": {"experiment": "Ratio of unbound drug concentration in IL-23/IL-1beta induced C57BL/6J mouse plasma at 70 mg/kg, po to EC50 for TYK2 (unknown origin) assessed as inhibition of IL-23 induced STAT3 phosphorylation"}, "[19]": {"experiment": "Permeability from apical side to basolateral side in MDCK cells", "format": "ADME, cell-based, Canis lupus familiaris", "conditions": "dog, read-out: permeability"}, "[20]": {"biological_target": "T2, Cyclin-dependent kinase 2", "experiment": "Inhibition of CDK2 (unknown origin)"}, "[21]": {"experiment": "Ratio of unbound drug concentration in IL-23/IL-1beta induced C57BL/6J mouse plasma at 100 mg/kg, po to EC50 for TYK2 (unknown origin) assessed as inhibition of IL-23 induced STAT3 phosphorylation"}, "[22]": {"biological_target": "T4, Tyrosine-protein kinase JAK3 (Homo sapiens, UniProt P52333)", "T4 sequence (P52333 whole entry)": "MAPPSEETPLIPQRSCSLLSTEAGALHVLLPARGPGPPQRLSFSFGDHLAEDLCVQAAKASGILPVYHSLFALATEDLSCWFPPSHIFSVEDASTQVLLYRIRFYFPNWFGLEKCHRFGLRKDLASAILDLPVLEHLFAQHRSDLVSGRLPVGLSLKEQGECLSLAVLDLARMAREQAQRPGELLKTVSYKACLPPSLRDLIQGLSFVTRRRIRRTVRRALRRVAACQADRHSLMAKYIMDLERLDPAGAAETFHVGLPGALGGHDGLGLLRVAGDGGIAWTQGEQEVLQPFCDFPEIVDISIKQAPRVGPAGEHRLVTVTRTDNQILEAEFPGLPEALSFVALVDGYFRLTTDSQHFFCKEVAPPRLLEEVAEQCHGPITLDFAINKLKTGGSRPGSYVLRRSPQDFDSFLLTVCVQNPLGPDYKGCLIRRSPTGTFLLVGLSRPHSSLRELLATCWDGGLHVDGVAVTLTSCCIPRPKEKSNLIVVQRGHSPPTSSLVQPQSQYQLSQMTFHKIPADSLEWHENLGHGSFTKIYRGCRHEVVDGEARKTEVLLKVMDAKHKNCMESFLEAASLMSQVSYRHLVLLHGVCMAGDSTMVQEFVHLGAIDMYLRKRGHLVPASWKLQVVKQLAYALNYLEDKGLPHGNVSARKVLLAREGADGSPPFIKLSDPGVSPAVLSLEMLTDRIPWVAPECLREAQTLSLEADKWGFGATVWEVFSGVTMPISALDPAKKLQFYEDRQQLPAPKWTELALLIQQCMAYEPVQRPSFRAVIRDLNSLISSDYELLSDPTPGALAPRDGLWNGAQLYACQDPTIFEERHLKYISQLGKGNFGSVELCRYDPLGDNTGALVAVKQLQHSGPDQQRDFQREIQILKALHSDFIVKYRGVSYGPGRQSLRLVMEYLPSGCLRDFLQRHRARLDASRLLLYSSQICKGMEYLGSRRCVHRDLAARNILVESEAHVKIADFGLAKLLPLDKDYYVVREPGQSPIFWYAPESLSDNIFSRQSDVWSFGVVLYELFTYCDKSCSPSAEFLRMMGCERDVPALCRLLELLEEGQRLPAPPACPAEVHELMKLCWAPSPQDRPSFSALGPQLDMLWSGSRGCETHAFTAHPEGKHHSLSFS", "experiment": "Inhibition of JAK3 (unknown origin)"}, "[23]": {"tested_on": "Mus musculus", "experiment": "Anti-inflammatory activity in IL-23/IL-1beta induced C57BL/6J mouse assessed as inhibition of IL-17F level in serum pretreated po for 30 mins followed by cytokine addition measured after 3 hrs by ELISA", "format": "functional, organism-based"}, "[24]": {"biological_target": "T3, Tyrosine-protein kinase JAK2", "experiment": "Inhibition of JAK2 (unknown origin) assessed as reduction in EPO-mediated STAT5 phosphorylation by cell based readout assay"}, "[25]": {"biological_target": "Substance-P receptor (Homo sapiens) (UniProt P25103)", "sequence (P25103 whole entry)": "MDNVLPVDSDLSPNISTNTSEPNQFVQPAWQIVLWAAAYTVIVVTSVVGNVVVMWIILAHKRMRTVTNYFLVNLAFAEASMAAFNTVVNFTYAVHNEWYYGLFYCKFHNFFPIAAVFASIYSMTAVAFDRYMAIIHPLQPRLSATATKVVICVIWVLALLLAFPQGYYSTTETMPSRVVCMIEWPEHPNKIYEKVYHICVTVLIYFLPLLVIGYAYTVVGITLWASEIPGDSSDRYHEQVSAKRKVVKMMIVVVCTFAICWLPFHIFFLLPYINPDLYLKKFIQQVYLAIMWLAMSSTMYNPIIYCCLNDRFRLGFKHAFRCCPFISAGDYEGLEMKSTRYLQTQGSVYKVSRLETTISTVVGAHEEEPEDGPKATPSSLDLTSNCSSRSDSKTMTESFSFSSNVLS", "experiment": "Inhibition of NK1 (unknown origin) at 10 uM relative to control"}, "[26]": {"tested_on": "Mus musculus", "experiment": "Antiinflammatory activity in IMQ-induced BALB/c mouse model assessed as reduction in serum IL-17F production at 100 mg/kg, po bid for 5 days", "format": "functional", "set-up": "scale not given: the % may be the effect or the level left"}, "[27]": {"tested_on": "Mus musculus", "experiment": "Antiinflammatory activity in IMQ-induced BALB/c mouse psoriasis model assessed as reduction in ear thickness at 30 mg/kg, po bid for 5 days meausred on day 6", "format": "functional", "set-up": "scale not given: the % may be the effect or the level left"}, "[28]": {"biological_target": "T1, Non-receptor tyrosine-protein kinase TYK2", "experiment": "Inhibition of TYK2 (unknown origin) by biochemical assay"}}, "note": "pEC50, pKi: −log10 of the molar value."}
{"compound": "Cc1cc(Nc2nccc3nc(-c4c(Cl)cc(C#N)cc4Cl)[nH]c23)ncn1", "values": [{"measurement": "Ratio", "setting": "[1]", "result": 1.1}, {"measurement": "Activity", "setting": "[2]", "result": 21, "unit": "%"}, {"measurement": "pEC50", "setting": "[3]", "result": 7.18}, {"measurement": "inhibition", "setting": "[4]", "result": "Dose-dependent effect"}, {"measurement": "Ratio Ki", "setting": "[5]", "result": 31}, {"measurement": "inhibition in vivo at 30 mg/kg", "setting": "[6]", "result": 30, "unit": "%"}, {"measurement": "Activity", "setting": "[7]", "result": 54, "unit": "%"}, {"measurement": "clearance", "setting": "[8]", "result": 5.1, "unit": "mL/min/kg"}, {"measurement": "inhibition", "setting": "[9]", "result": "> 50", "unit": "%"}, {"measurement": "fraction unbound", "setting": "[10]", "result": 0.034}, {"measurement": "inhibition in vivo at 100 mg/kg", "setting": "[11]", "result": 87, "unit": "%"}, {"measurement": "Activity", "setting": "[12]", "result": 55, "unit": "%"}, {"measurement": "Ratio", "setting": "[13]", "result": 13}, {"measurement": "efflux ratio", "setting": "[14]", "result": 1.1}, {"measurement": "pKi", "setting": "[15]", "result": 6.97}, {"measurement": "pKi", "setting": "[16]", "result": 7.66}, {"measurement": "fraction unbound", "setting": "[17]", "result": 0.028}, {"measurement": "Ratio", "setting": "[18]", "result": 23}, {"measurement": "Papp A→B", "setting": "[19]", "result": 12.7, "unit": "×10⁻⁶ cm/s"}, {"measurement": "pKi", "setting": "[20]", "result": 7.05}, {"measurement": "Ratio", "setting": "[21]", "result": 39}, {"measurement": "pKi", "setting": "[22]", "result": 7.24}, {"measurement": "inhibition", "setting": "[23]", "result": "Dose-dependent effect"}, {"measurement": "pEC50", "setting": "[24]", "result": 5.85}, {"measurement": "inhibition", "setting": "[25]", "result": 67, "unit": "%"}, {"measurement": "Activity", "setting": "[26]", "result": 99, "unit": "%"}, {"measurement": "Activity", "setting": "[27]", "result": 20, "unit": "%"}, {"measurement": "pKi", "setting": "[28]", "result": 9.15}]}
